According to patent publication US20120088247A1, “MATERIALS AND METHODS FOR TREATING PATIENTS WITH TAXOXIFEN” (Indian University Research & Technology Corporatio, priority 2009, published 2012):

Columns and labels:
[1] = Plasma concentrations of tamoxifen and its metabolites (HPLC) in women with breast cancer taking tamoxifen, by UGT2B7 genotype and CYP2D6 score
Excerpt: Patients. […] Subjects for the registry were recruited from the Breast Oncology Program at the University of Michigan Comprehensive Cancer Center and the Indiana University Cancer Center. […] Patients were enrolled after they had completed all primary surgery, radiation, and adjuvant chemotherapy. Specimens and data from this registry has been sed for several other studies, as reported previously,[16],[6],[17].
Study design. […] At the indicated time points, medical histories, including a comprehensive list of current medications, were obtained, and blood samples (5 mL) were drawn. […] Blood was collected in heparin tubes, and plasma was separated within 1 hour of blood collection by centrifugation at 2060×g. All samples (plasma and whole blood) were transferred to cryogenic vials (Corning, Cambridge, Mass.), shipped to the laboratory of the Division of Clinical Pharmacology, Indiana University, on dry ice, and stored at −80° C. until analysis.
UGT 2B7 genotyping. Genomic deoxyribonucleic acid (DNA) was extracted from the leukocyte portion of whole blood by use of a QJAamp DNA Blood Mini Kit (Qiagen, Valencia, Calif.) and used for genotyping of UGT2B7 variants. UGT2B7 codon 268 genotypes were determined by real-time PCR assays using the TaqMan Drug Metabolism Genotyping Assay C—32449742—20 (Applied Biosystems, Foster City, Calif.) in the ABI 7900HT sequence detection system equipped with an autoloader in the Functional Genomics Core Facility at the Penn State College of Medicine. […] The same primers were used for both PCR and sequencing: sense, 5′-[…]-3′ (SEQ ID. No. 3), located +642-+670 from the UGT2B7 translation start site); and antisense, 5′-[…]-3′ (SEQ. ID. No. 4), located +1555-+1597 from the UGT2B7 translation start site.
CYP2D6 genotyping. Genomic DNA was extracted from whole blood. CYP2D6 genotyping was conducted using two different genotyping methods: The AmpliChip CYP450 Test (Roche Diagnostics, Indianapolis, Ind.) and the Luminex CYP450C CYP2D6 assay (TM Biosciences). The AmpliChip was used for 129 of the DNA samples. It tests for 33 CYP2D6 alleles (ie, *1 to *10AB, *11, *14A, *14B, *15, *17, *19, *20, *25, *26, *29 to *31, *35, *36, *40, *41, *1N, *2xN, *4xN, *10xN, *17xN, *35xN, and *41xN). The remaining 60 samples were genotyped using the Luminex CYP450 Test. It tests for 16 CYP2D6 alleles (ie, *2 through *12, *14, *15, *17, and *41). The genotypes of approximately 10-20% of the samples were confirmed by running both assays or by using independent Taqman or restriction fragment length polymorphism (RFLP) assays.
CYP2D6 Gene Score. The CYP2D6 alleles were assigned a value that reflects the expected relative activity of the CYP2D6 enzyme for which they code. Accordingly, fully functional CYP2D6 alleles (e.g. *1, *2, *33, *35) were assigned a score of 1. CYP2D6 alleles associated with reduced enzyme activity (e.g. *9,*10, *17, *29, *37, *41, *45, *46) were scored as 0.5.
CYP2D6 Inhibition Factor and CYP2D6 Activity Score. After calculating the expected activity of the CYP2D6 enzyme according to the genotype, the possible effects of known CYP2D6 inhibitors on the performance of the CYP2D6 protein were incorporated. […] This rule defines the CYP2D6 inhibition factor. The CYP2D6 Activity Score is expressed as the product of multiplying the CYP2D6 Gene Score by the Inhibitor factor, which is defined in the following equation: activity score=(gene score×inhibition factor),
In presenting CYP2D6 activity score data, an extensive metabolizer (EM) was defined as an individual with an activity score greater than 2; a poor metabolizer (PM) was defined with an activity score less than 1; and an intermediate metabolizer (IM) as an individual who has a score between 1 and 2.

[2] = literature refs [18],[19]; cited from earlier work

CC/C(=C(\c1ccccc1)c1ccc(OCCNC)cc1)c1ccccc1 [N-desmethyl-tamoxifen]
Association of plasma concentration with UGT2B7 genotype ([1]; FIG. 1, P<0.05 considered significant): not significantly associated | Mean plasma concentration, percent larger in the *2/*2 group ([1]; UGT2B7 *2/*2 group (FIG. 1A, 1D)): 42%

CC/C(=C(\c1ccc(O)cc1)c1ccc(OCCNC)cc1)c1ccccc1 [endoxifen, 4-hydroxy-N-desmethyl-tamoxifen]
Increase in concentration due to gene-gene interaction ([1]; female, human, in vivo): 220% | Increase in endoxifen concentration ([1]; female, human, in vivo): 58% | Mean plasma endoxifen concentration, percent higher in UGT2B7*2/*2 group than in each of *1/*2 and *1/*1 groups ([1]; female, human, in vivo): 34% | Range of mean plasma endoxifen concentration by compound UGT2B7 genotype and CYP2D6 score ([1]; female, human, in vivo): 12 to 100 nM | Range of mean plasma endoxifen concentration over combined UGT2B7 genotype and CYP2D6 score groups ([1]; female, human, in vivo): 19 to 107 nM | Association of plasma concentration with UGT2B7 genotype ([1]; in vivo): significant

CC/C(=C(\c1ccccc1)c1ccc(OCCN(C)C)cc1)c1ccccc1 [tamoxifen, Tamoxifen]
half-life [2]: 120 to 170 h
